Results reported in PMC4599074 (Drug Design, Development and Therapy, 2015).

Key:
MAO-B [1] = biological target: T1, MAO-B (Homo sapiens, UniProt P27338); conditions: for SI (selectivity index for the MAO-B isoform): ratio IC50 (MAO-A)/IC50 (MAO-B)
T1 sequence (P27338 1-520): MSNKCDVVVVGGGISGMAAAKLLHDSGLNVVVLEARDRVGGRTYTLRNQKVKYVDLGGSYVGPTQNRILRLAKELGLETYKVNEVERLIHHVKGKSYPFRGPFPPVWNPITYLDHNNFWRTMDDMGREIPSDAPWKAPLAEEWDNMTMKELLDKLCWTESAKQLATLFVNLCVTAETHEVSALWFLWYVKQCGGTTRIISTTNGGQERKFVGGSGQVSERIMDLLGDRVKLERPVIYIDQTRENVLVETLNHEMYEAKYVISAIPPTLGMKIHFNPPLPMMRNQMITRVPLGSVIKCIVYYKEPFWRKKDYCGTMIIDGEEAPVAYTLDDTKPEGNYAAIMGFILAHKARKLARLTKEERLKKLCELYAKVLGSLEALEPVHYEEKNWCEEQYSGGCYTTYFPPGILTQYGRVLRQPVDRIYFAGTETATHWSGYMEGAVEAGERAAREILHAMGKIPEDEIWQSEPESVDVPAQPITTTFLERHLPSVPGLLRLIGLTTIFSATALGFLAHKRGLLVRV

MAO-B [2] = biological target: T1, MAO-B; assay: biochemical
MAO-A [3] = biological target: T2, MAO-A (Homo sapiens, UniProt P21397); assay: biochemical
T2 sequence (P21397 1-527): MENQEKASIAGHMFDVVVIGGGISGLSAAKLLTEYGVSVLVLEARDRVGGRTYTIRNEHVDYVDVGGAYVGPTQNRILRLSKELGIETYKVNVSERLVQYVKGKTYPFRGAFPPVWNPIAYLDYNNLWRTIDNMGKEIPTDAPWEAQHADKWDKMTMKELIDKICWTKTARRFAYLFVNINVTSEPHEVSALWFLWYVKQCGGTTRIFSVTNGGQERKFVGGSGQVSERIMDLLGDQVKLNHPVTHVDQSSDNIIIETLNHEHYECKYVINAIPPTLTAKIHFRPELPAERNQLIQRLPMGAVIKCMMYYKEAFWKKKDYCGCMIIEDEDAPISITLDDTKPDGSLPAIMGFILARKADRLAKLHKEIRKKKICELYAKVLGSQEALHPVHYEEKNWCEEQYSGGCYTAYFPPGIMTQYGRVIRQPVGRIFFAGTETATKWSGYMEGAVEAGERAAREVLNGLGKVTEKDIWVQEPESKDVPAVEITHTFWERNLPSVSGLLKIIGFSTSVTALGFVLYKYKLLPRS

MAO-B [4] = biological target: T1, MAO-B; assay: Lineweaver–Burk plots, mode of inhibition and Ki for MAO-B; conditions: Ki for the inhibition of MAO-B, global (shared) fitting to the Michaelis–Menten equation, r2 = 0.99
MAO-B [5] = biological target: T1, MAO-B; assay: Reversibility of MAO-B inhibition by dialysis of enzyme/inhibitor mixtures; format: biochemical; conditions: for residual MAO-B activity after dialysis (% of negative control): combined with MAO-B 15 minutes, dialyzed 24 hours, 5g at 4× IC50
MAO-A [6] = biological target: T2, MAO-A; assay: Reversibility of MAO-A inhibition by dialysis of enzyme/inhibitor mixtures; conditions: for residual MAO-A activity after dialysis (% of negative control): combined with MAO-A 15 minutes, dialyzed 24 hours
MAO-A [7] = biological target: T2, MAO-A; conditions: from IC50 values
MAO-A [8] = biological target: T2, MAO-A; conditions: read-out: Km for oxidation by MAO-A; substrate Km, previous studies; cited from earlier work
MAO-B [9] = biological target: T1, MAO-B; conditions: read-out: Km for oxidation by MAO-B; substrate Km, previous studies; cited from earlier work
[10] = undialyzed, inhibitor at 4× IC50

Row | Molecule | SI (selectivity index for the MAO-B isoform) (MAO-B [1]) | IC50 (MAO-B [2]) [nM] | IC50 (MAO-A [3]) [µM] | further results
1 | O=C1COc2cc(OCc3ccccc3)ccc21 [5a, 6-(Benzyloxy)-2H-1-benzofuran-3-one] | 431 | 62 ± 11 | 26.7 ± 0.351 | –
2 | O=C1COc2cc(OCc3ccc(F)cc3)ccc21 [5b, 6-(4-Fluorobenzyloxy)-2H-1-benzofuran-3-one] | 518 | 22 ± 3 | 11.4 ± 2.54 | –
3 | O=C1COc2cc(OCc3cccc(F)c3)ccc21 [5c, 6-(3-Fluorobenzyloxy)-2H-1-benzofuran-3-one] | 593 | 136 ± 30 | 80.7 ± 9.22 | –
4 | O=C1COc2cc(OCc3ccc(Cl)cc3)ccc21 [5d, 6-(4-Chlorobenzyloxy)-2H-1-benzofuran-3-one] | 115 | 19 ± 7 | 2.19 ± 0.135 | –
5 | O=C1COc2cc(OCc3cccc(Cl)c3)ccc21 [5e, 6-(3-Chlorobenzyloxy)-2H-1-benzofuran-3-one] | 1,558 | 12 ± 3 | 18.7 ± 7.82 | –
6 | O=C1COc2cc(OCc3ccc(Br)cc3)ccc21 [5f, 6-(4-Bromobenzyloxy)-2H-1-benzofuran-3-one] | 175 | 16 ± 3 | 2.8 ± 0.079 | –
7 | O=C1COc2cc(OCc3cccc(Br)c3)ccc21 [5g, 6-(3-Bromobenzyloxy)-2H-1-benzofuran-3-one] | 980 | 4 ± 1 | 3.92 ± 0.827 | fold more potent MAO-B inhibitor than lazabemide (MAO-B [1]; from IC50 values): 22 fold; Ki (MAO-B [4]): 3.4 ± 0.3 nM; residual MAO-B activity after dialysis (% of negative control) (MAO-B [5]): 87%; reversibility of MAO-B inhibition (MAO-B [5]; dialysis 24 hours): reversible MAO-B inhibitor; residual MAO-B activity of undialyzed mixtures (% of negative control) (MAO-B [5]; [10]): 42%
8 | O=C1COc2cc(OCc3ccc(I)cc3)ccc21 [5h, 6-(4-Iodobenzyloxy)-2H-1-benzofuran-3-one] | – | 28 ± 6 | > 100 | –
9 | O=C1COc2cc(OCc3cccc(I)c3)ccc21 [5i, 6-(3-Iodobenzyloxy)-2H-1-benzofuran-3-one] | 1,081 | 7 ± 1 | 7.57 ± 1.82 | –
10 | N#Cc1ccc(COc2ccc3c(c2)OCC3=O)cc1 [5j, 6-(4-Cyanobenzyloxy)-2H-1-benzofuran-3-one] | 63 | 79 ± 19 | 5.01 ± 0.919 | –
11 | N#Cc1cccc(COc2ccc3c(c2)OCC3=O)c1 [5k, 6-(3-Cyanobenzyloxy)-2H-1-benzofuran-3-one] | 3.5 | 166 ± 15 | 0.586 ± 0.133 | residual MAO-A activity after dialysis (% of negative control) (MAO-A [6]; inhibitor at 4× IC50): 109%; reversibility of MAO-A inhibition (MAO-A [6]; dialysis 24 hours): reversible; residual MAO-A activity of undialyzed mixtures (% of negative control) (MAO-A [6]; [10]): 65%; fold more potent MAO-A inhibitor than toloxatone (MAO-A [7]): sixfold
12 | Cc1ccc(COc2ccc3c(c2)OCC3=O)cc1 [5l, 6-(4-Methylbenzyloxy)-2H-1-benzofuran-3-one] | >1,852 | 54 ± 11 | > 100 | –
13 | Cc1cccc(COc2ccc3c(c2)OCC3=O)c1 [5m, 6-(3-Methylbenzyloxy)-2H-1-benzofuran-3-one] | 646 | 96 ± 3 | 62 ± 16.9 | –
14 | O=C1COc2cc(OCc3ccc(C(F)(F)F)cc3)ccc21 [5n, 6-[4-(Trifluoromethyl)benzyloxy]-2H-1-benzofuran-3-one] | >2,564 | 39 ± 5 | > 100 | –
15 | O=C1COc2cc(OCCc3ccccc3)ccc21 [5o, 6-(2-Phenylethoxy)-2H-1-benzofuran-3-one] | 129 | 107 ± 10 | 13.8 ± 2.11 | –
16 | O=C1COc2cc(OCCCc3ccccc3)ccc21 [5p, 6-(3-Phenylpropoxy)-2H-1-benzofuran-3-one] | 215 | 55 ± 8 | 11.8 ± 0.93 | –
17 | O=C1COc2cc(OCCOc3ccccc3)ccc21 [5q, 6-(2-Phenoxyethoxy)-2H-1-benzofuran-3-one] | >2,000 | 50 ± 6 | > 100 | –
18 | O=C1COc2cc(OCCc3ccc(Br)cc3)ccc21 [5r, 6-[2-(4-Bromophenyl)ethoxy]-2H-1-benzofuran-3-one] | 4.7 | 564 ± 49 | 2.65 ± 0.629 | –
19 | Cc1ccc(CCOc2ccc3c(c2)OCC3=O)cc1 [5s, 6-[2-(4-Methylphenyl)ethoxy]-2H-1-benzofuran-3-one] | 11 | 1050 ± 147 | 11.3 ± 0.683 | –
20 | Cc1cccc(CCOc2ccc3c(c2)OCC3=O)c1 [5t, 6-[2-(3-Methylphenyl)ethoxy]-2H-1-benzofuran-3-one] | 143 | 181 ± 21 | 25.9 ± 8.72 | –
21 | O=C1COc2cc(O)ccc21 [compound 6, 6-Hydroxy-3-coumaranone, reference compound] | – | 12000 ± 4210 | > 100 | fold weaker as MAO-B inhibitor compared to 5a (MAO-B [1]; from IC50 values): 193 fold
22 | NCCC(=O)c1ccccc1N [kynuramine] | – | – | – | Km (MAO-A [8]): 41 µM; Km (MAO-B [9]): 29 µM
23 | C#CCN(C)Cc1ccccc1 [pargyline, reference compound] | – | – | – | residual MAO-A activity after dialysis (% of negative control) (MAO-A [6]; inhibitor at 4× IC50): 1.6%
24 | (R)-deprenyl [reference compound] | – | – | – | residual MAO-B activity after dialysis (% of negative control) (MAO-B [5]): 3.1%
